Measured values: BindingDB's records for patent US20230348371 (Shanghai Senhui Medicine, 2023)

Target: ATP-binding cassette sub-family C member 8 (Homo sapiens, UniProt Q09428)
Assay: Binding Activity of the Compounds of the Present Disclosure for SUR1 Receptor
Method: The plate was incubated at 4° C. for 1 h.f) The […]-96 GF/C and […]-96 GF/B plates were washed twice with Universal Harvester, each time with 50 mL of washing solution.g) The SUR1 receptor reaction system was transferred to a […]-96 GF/B plate with Universal Harvester, and 900 μL of washing solution was added to each well to wash the GF/B plate 4 times. The washed […]-96 GF/B plate was dried in an oven at 55° C. for 10 min.h) 40 μL of ULTIMA GOLD scintillation solution was added to each well, and the plate was read using Microbeta.

Sequence of ATP-binding cassette sub-family C member 8 (Q09428 whole entry): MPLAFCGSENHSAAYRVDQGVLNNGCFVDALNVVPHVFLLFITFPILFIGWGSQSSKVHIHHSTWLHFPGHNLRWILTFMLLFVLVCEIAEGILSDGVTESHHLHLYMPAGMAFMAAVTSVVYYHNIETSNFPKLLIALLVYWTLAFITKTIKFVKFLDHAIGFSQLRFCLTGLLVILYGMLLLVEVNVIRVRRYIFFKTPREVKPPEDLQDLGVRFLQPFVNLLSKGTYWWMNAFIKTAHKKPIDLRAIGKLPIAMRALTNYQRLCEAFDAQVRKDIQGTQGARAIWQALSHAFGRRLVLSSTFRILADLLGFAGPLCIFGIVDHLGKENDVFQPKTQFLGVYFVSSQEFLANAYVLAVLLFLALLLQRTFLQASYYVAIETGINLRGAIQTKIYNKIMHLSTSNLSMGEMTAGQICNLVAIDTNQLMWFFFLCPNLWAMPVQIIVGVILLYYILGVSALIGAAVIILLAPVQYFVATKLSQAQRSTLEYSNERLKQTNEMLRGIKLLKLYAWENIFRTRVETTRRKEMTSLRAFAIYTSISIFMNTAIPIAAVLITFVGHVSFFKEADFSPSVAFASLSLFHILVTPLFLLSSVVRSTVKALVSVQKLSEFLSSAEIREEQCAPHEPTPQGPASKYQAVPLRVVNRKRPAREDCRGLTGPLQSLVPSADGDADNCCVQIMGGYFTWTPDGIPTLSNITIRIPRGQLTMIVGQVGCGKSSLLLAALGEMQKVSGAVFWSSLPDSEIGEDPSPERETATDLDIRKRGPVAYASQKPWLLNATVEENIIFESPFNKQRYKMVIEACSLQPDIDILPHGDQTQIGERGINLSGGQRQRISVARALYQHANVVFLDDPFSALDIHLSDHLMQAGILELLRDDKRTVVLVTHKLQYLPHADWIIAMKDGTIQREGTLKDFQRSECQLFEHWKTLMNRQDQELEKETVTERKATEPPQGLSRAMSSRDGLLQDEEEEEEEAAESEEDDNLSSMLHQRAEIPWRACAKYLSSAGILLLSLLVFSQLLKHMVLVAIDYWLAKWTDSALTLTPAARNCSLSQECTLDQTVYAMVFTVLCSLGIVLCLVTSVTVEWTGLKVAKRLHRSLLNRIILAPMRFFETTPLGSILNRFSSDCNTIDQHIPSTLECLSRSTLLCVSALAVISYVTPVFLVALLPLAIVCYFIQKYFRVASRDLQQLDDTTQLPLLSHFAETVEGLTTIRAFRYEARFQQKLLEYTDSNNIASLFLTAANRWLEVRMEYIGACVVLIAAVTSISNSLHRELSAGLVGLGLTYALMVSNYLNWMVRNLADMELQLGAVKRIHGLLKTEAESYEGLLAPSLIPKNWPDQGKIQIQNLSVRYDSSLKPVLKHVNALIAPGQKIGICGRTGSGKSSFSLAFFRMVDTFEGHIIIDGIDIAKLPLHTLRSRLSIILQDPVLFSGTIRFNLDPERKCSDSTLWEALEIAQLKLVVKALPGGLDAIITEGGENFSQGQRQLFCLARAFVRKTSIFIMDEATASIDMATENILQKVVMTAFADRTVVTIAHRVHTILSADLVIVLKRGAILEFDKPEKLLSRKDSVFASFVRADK

Structure (SMILES): COc1ccc(Cl)cc1C(=O)NCCc1ccc(S(=O)(=O)NC(=O)N[C@H]2CC[C@H](O)CC2)cc1 [US20230348371, Compound 4]
- IC50: 8 nM
